Laboratory results: US9630977B2, “Cephalosporin derivatives and pharmaceutical compositions thereof” (Legochem Biosciences, Inc., priority 2011, dated 2017)
In brackets after ≈: the same amount, converted by molar mass.

Each compound was assayed on A. baumannii 49 (assay: In vitro antibacterial activity test (broth microdilution)). Settings: Acinetobacter baumannii, 49, A. baumannii 49.
Format: cell-based
Experimental: (§1) To evaluate antibacterial activity of each of the compounds of Examples 1 to 68, in vitro antibacterial activity test was performed.
(§2) The in vitro antibacterial activity was evaluated by measuring MIC90 (ug/mL) of each of the compounds of Examples 1 to 68, which is defined as the lowest concentration of an antibiotic that will inhibit the visible growth of 90% of microorganisms after incubation as compared with a control group to which the antibiotic is not treated. MIC90 values were measured by the broth microdilution method developed by the Clinical and Laboratory Standards Institute (CLSI) (see CLSI M7-A5, Methods for Dilution Antimicrobial Susceptibility Test for Bacteria that Grow Aerobically-Fifth Edition (2000): CLSI, Villanova, Pa.).
(§3) In vitro antibacterial activity was measured with respect to the following 19 clinical isolates: M. catarrhalis; P. aeruginosa (5 strains); K. pneumoniae (6 strains); A. baumannii (3 strains); E. coli (2 strains); A. calcoaceticus; and E. cloacae.
(§4) Test compounds each (the cephalosporin derivative compounds prepared in Examples 1 to 68) were dissolved in DMSO at the concentration of 10,240 ug/mL, were diluted by two fold with DMSO, and then were diluted by twenty fold with sterilized distilled water. The final concentration in the antibacterial activity test was in the range of […] to 128 ug/mL, and the final concentration of DMSO used as an adjuvant was 2.5% (V/V).

SMILES | MIC90 [µg/mL]
CC(C)(O/N=C(\C(=O)N[C@@H]1C(=O)N2C(C(=O)[O-])=C(/C=C/C[n+]3cnc(N)c(NC(=O)CCN)c3)CSC12)c1csc(N)n1)C(=O)O (stereo partly shown) [Compound 60] | > 128

What follows are compounds tested on A. calcoaceticus ATCC15473 in the same assay as above. Settings: Acinetobacter calcoaceticus, ATCC15473, A. calcoaceticus ATCC15473.
Format: cell-based
Experimental: as §1, §2, §3, §4

SMILES | MIC90 [µg/mL]
CC(C)(O/N=C(\C(=O)N[C@@H]1C(=O)N2C(C(=O)[O-])=C(/C=C/C[n+]3cnc(N)c(NC(=O)CCN)c3)CSC12)c1csc(N)n1)C(=O)O (stereo partly shown) [Compound 60] | 1 (≈ 1.48 µM)

Each compound was assayed on K. pneumoniae 2011E in the same assay as above. Settings: Klebsiella pneumoniae, 2011E.
Format: cell-based
Experimental: as §1, §2, §3, §4

SMILES | MIC90 [µg/mL]
CC(C)(O/N=C(\C(=O)N[C@@H]1C(=O)N2C(C(=O)[O-])=C(/C=C/C[n+]3cnc(N)c(NC(=O)CCN)c3)CSC12)c1csc(N)n1)C(=O)O (stereo partly shown) [Compound 60] | 0.25 (≈ 0.371 µM)

The compounds below were run on K. pneumoniae β11 in the same assay as above. Settings: Klebsiella pneumoniae.
Format: cell-based
Experimental: as §1, §2, §3, §4

SMILES | MIC90 [µg/mL]
CC(C)(O/N=C(\C(=O)N[C@@H]1C(=O)N2C(C(=O)[O-])=C(/C=C/C[n+]3cnc(N)c(NC(=O)CCN)c3)CSC12)c1csc(N)n1)C(=O)O (stereo partly shown) [Compound 60] | 64 (≈ 94.9 µM)

What follows are compounds tested on P. aeruginosa 43 in the same assay as above. Settings: Pseudomonas aeruginosa, 43.
Format: cell-based
Experimental: as §1, §2, §3, §4

SMILES | MIC90 [µg/mL]
CC(C)(O/N=C(\C(=O)N[C@@H]1C(=O)N2C(C(=O)[O-])=C(/C=C/C[n+]3cnc(N)c(NC(=O)CCN)c3)CSC12)c1csc(N)n1)C(=O)O (stereo partly shown) [Compound 60] | 64 (≈ 94.9 µM)

What follows are compounds tested on E. cloacae β19 in the same assay as above. Settings: Enterobacter cloacae.
Format: cell-based
Experimental: as §1, §2, §3, §4

SMILES | MIC90 [µg/mL]
CC(C)(O/N=C(\C(=O)N[C@@H]1C(=O)N2C(C(=O)[O-])=C(/C=C/C[n+]3cnc(N)c(NC(=O)CCN)c3)CSC12)c1csc(N)n1)C(=O)O (stereo partly shown) [Compound 60] | 0.5 (≈ 0.741 µM)

What follows are compounds tested on P. aeruginosa 37 in the same assay as above. Settings: Pseudomonas aeruginosa, 37, P. aeruginosa 37.
Format: cell-based
Experimental: as §1, §2, §3, §4

SMILES | MIC90 [µg/mL]
CC(C)(O/N=C(\C(=O)N[C@@H]1C(=O)N2C(C(=O)[O-])=C(/C=C/C[n+]3cnc(N)c(NC(=O)CCN)c3)CSC12)c1csc(N)n1)C(=O)O (stereo partly shown) [Compound 60] | 32 (≈ 47.4 µM)

These compounds were tested on E. coli AG100 in the same assay as above. Settings: Escherichia coli, AG100.
Format: cell-based
Experimental: as §1, §2, §3, §4

SMILES | MIC90 [µg/mL]
CC(C)(O/N=C(\C(=O)N[C@@H]1C(=O)N2C(C(=O)[O-])=C(/C=C/C[n+]3cnc(N)c(NC(=O)CCN)c3)CSC12)c1csc(N)n1)C(=O)O (stereo partly shown) [Compound 60] | 0.125 (≈ 0.185 µM)

What follows are compounds tested on P. aeruginosa 40 in the same assay as above. Settings: Pseudomonas aeruginosa, 40.
Format: cell-based
Experimental: as §1, §2, §3, §4

SMILES | MIC90 [µg/mL]
CC(C)(O/N=C(\C(=O)N[C@@H]1C(=O)N2C(C(=O)[O-])=C(/C=C/C[n+]3cnc(N)c(NC(=O)CCN)c3)CSC12)c1csc(N)n1)C(=O)O (stereo partly shown) [Compound 60] | 8 (≈ 11.9 µM)

Each compound was assayed on K. pneumoniae β9 in the same assay as above. Settings: Klebsiella pneumoniae.
Format: cell-based
Experimental: as §1, §2, §3, §4

SMILES | MIC90 [µg/mL]
CC(C)(O/N=C(\C(=O)N[C@@H]1C(=O)N2C(C(=O)[O-])=C(/C=C/C[n+]3cnc(N)c(NC(=O)CCN)c3)CSC12)c1csc(N)n1)C(=O)O (stereo partly shown) [Compound 60] | 1 (≈ 1.48 µM)

What follows are compounds tested on A. baumannii 52 in the same assay as above. Settings: Acinetobacter baumannii, 52.
Format: cell-based
Experimental: as §1, §2, §3, §4

SMILES | MIC90 [µg/mL]
CC(C)(O/N=C(\C(=O)N[C@@H]1C(=O)N2C(C(=O)[O-])=C(/C=C/C[n+]3cnc(N)c(NC(=O)CCN)c3)CSC12)c1csc(N)n1)C(=O)O (stereo partly shown) [Compound 60] | 128 (≈ 190 µM)

These compounds were tested on A. baumannii 46 in the same assay as above. Settings: Acinetobacter baumannii, 46, A. baumannii 46.
Format: cell-based
Experimental: as §1, §2, §3, §4

SMILES | MIC90 [µg/mL]
CC(C)(O/N=C(\C(=O)N[C@@H]1C(=O)N2C(C(=O)[O-])=C(/C=C/C[n+]3cnc(N)c(NC(=O)CCN)c3)CSC12)c1csc(N)n1)C(=O)O (stereo partly shown) [Compound 60] | 8 (≈ 11.9 µM)

The compounds below were run on M. catarrhalis 2524 in the same assay as above. Settings: Moraxella catarrhalis, 2524.
Format: cell-based
Experimental: as §1, §2, §3, §4

SMILES | MIC90 [µg/mL]
CC(C)(O/N=C(\C(=O)N[C@@H]1C(=O)N2C(C(=O)[O-])=C(/C=C/C[n+]3cnc(N)c(NC(=O)CCN)c3)CSC12)c1csc(N)n1)C(=O)O (stereo partly shown) [Compound 60] | < 0.0625

The compounds below were run on P. aeruginosa 1912E in the same assay as above. Settings: Pseudomonas aeruginosa, 1912E.
Format: cell-based
Experimental: as §1, §2, §3, §4

SMILES | MIC90 [µg/mL]
CC(C)(O/N=C(\C(=O)N[C@@H]1C(=O)N2C(C(=O)[O-])=C(/C=C/C[n+]3cnc(N)c(NC(=O)CCN)c3)CSC12)c1csc(N)n1)C(=O)O (stereo partly shown) [Compound 60] | 2 (≈ 2.96 µM)

These compounds were tested on K. pneumoniae β13 in the same assay as above. Settings: Klebsiella pneumoniae.
Format: cell-based
Experimental: as §1, §2, §3, §4

SMILES | MIC90 [µg/mL]
CC(C)(O/N=C(\C(=O)N[C@@H]1C(=O)N2C(C(=O)[O-])=C(/C=C/C[n+]3cnc(N)c(NC(=O)CCN)c3)CSC12)c1csc(N)n1)C(=O)O (stereo partly shown) [Compound 60] | 0.5 (≈ 0.741 µM)

What follows are compounds tested on K. pneumoniae β10 in the same assay as above. Settings: Klebsiella pneumoniae.
Format: cell-based
Experimental: as §1, §2, §3, §4

SMILES | MIC90 [µg/mL]
CC(C)(O/N=C(\C(=O)N[C@@H]1C(=O)N2C(C(=O)[O-])=C(/C=C/C[n+]3cnc(N)c(NC(=O)CCN)c3)CSC12)c1csc(N)n1)C(=O)O (stereo partly shown) [Compound 60] | 0.5 (≈ 0.741 µM)

Each compound was assayed on E. coli β4 in the same assay as above. Settings: Escherichia coli.
Format: cell-based
Experimental: as §1, §2, §3, §4

SMILES | MIC90 [µg/mL]
CC(C)(O/N=C(\C(=O)N[C@@H]1C(=O)N2C(C(=O)[O-])=C(/C=C/C[n+]3cnc(N)c(NC(=O)CCN)c3)CSC12)c1csc(N)n1)C(=O)O (stereo partly shown) [Compound 60] | 0.25 (≈ 0.371 µM)

What follows are compounds tested on K. pneumoniae β14 in the same assay as above. Settings: Klebsiella pneumoniae.
Format: cell-based
Experimental: as §1, §2, §3, §4

SMILES | MIC90 [µg/mL]
CC(C)(O/N=C(\C(=O)N[C@@H]1C(=O)N2C(C(=O)[O-])=C(/C=C/C[n+]3cnc(N)c(NC(=O)CCN)c3)CSC12)c1csc(N)n1)C(=O)O (stereo partly shown) [Compound 60] | 0.5 (≈ 0.741 µM)

What follows are compounds tested on P. aeruginosa 6065Y in the same assay as above. Settings: Pseudomonas aeruginosa, 6065Y.
Format: cell-based
Experimental: as §1, §2, §3, §4

SMILES | MIC90 [µg/mL]
CC(C)(O/N=C(\C(=O)N[C@@H]1C(=O)N2C(C(=O)[O-])=C(/C=C/C[n+]3cnc(N)c(NC(=O)CCN)c3)CSC12)c1csc(N)n1)C(=O)O (stereo partly shown) [Compound 60] | 16 (≈ 23.7 µM)
